Source: patent US20110189260A1, “USE OF ZINC CHELATORS TO INHIBIT BIOFILM FORMATION” (UNIVERSITY OF CINCINNATI, priority 2008, published 2011)
“Also recorded” adds a separate entry of the source.

Tests used:
Type in all cases: cell-based
[1] = test system: S. epidermidis RP62A biofilms; assay: RP62A biofilms on polystyrene visualized with crystal violet (FIG. 3A, 3C, 4, 7, 8); conditions: RP62A; for effect of divalent cation salt on biofilm inhibition by DTPA: up to 60 μM salt, FIG. 7
Method: FIG. 3. (A) S. epidermidis RP62A biofilms formed on polystyrene and were visualized with crystal violet; addition of the Zn^2+ chelator DTPA (≧30 μM) inhibits biofilm formation. Representative wells have been scanned (bottom). Untreated (“RP62A”) and vehicle (“HCl”) controls are shown. Error bars show standard deviation (* indicates p<0.05 relative to untreated control; n=3); (B) Methicillin-resistant S. aureus USA300 biofilms form on fibronectin-coated plates but are inhibited by addition of DTPA (≧30 μM). (*: p<0.05; n=4); (C) Addition of 5-20 μM ZnCl2 at a minimal inhibitory dose of DTPA (30 μM) rescues biofilm formation by RP62A.
FIG. 4. […] (*: p<0.05 relative to RP62A control at the relevant Zn^2+ concentration; n=3); (B) Dose response of biofilm inhibition by MBP-Brpt1.5 at a fixed 1 mM ZnCl2 concentration. (*: p<0.0005; n=3); (C) The “zinc zipper” model for intercellular adhesion in staphylococcal biofilms mediated by zinc-dependent self-association of G5 domains.
FIG. 7. […] All data at 30 μM DTPA show statistically significant decreases compared to no-treatment control (RP62A). Statistically significant increases over the 0 μM MnCl2/30 μM DTPA datapoint are marked with an asterisk (*).
To test the physiological role of Zn^2+-mediated G5 adhesion in the formation of staphylococcal biofilms, both S. epidermidis and S. aureus biofilms were grown in culture in the presence or absence of the Zn^2+ chelator diethylenetriaminepentaacetic acid (DTPA). DTPA was non-toxic at all concentrations tested (up to 100 μM). S. epidermidis strain RP62A formed robust biofilms when cultured in media alone, but biofilm growth was inhibited by non-toxic doses of DTPA (≧30 μM) (FIG. 3A).
To determine whether Zn^2+-dependent biofilm formation is specifically dependent upon G5 domain-mediated self-assembly, soluble Brpt1.5 was added to S. epidermidis RP62A biofilms as a maltose-binding protein (MBP) fusion. Because of the higher Zn^2+ concentrations required to induce dimerization in the short construct compared to full-length Aap, inhibition by MBP-Brpt1.5 was tested at Zn^2+ concentrations ranging up to 1 mM. RP62A biofilms were inhibited by soluble MBP-Brpt1.5 in the presence of 0.75 and 1 mM ZnCl2, whereas addition of MBP alone had no effect (FIG. 4A). […] Thus, addition of even a single intact zinc adhesion module in a soluble form is capable of inhibiting biofilm formation, highlighting the role of this domain as a Zn^2+-dependent adhesion module in staphylococcal biofilms.

[2] = test system: Staphylococcus aureus Strain Rosenbach SA113; assay: Biofilm formation assay in FBS pre-treated 96 well plates, crystal violet (Example 9); conditions: SA113, 2% glucose, 36-40 hours
Method: In addition, 96 well microtiter plates were pre-treated with fetal bovine serum (FBS) at 4° C. for at least 24 hours prior to use. The FBS was aspirated prior to addition of chelators and glucose for the assay. […] The 96 well plates were then incubated 36-40 hours statically at 37° C. Media was aspirated by pipet and wells were washed twice with filtered water. The plates were dried by inversion for 1 hour, and stained with 0.1% crystal violet for 15 minutes. Crystal violet was then aspirated by pipet and washed once with filtered water. The plates were then read on a spectrophotometer at a wavelength of 570 nm.

[3] = test system: Methicillin-Resistant Staphylococcus epidermidis Strain RP62a; assay: Biofilm formation assay in 96 well plates, crystal violet, absorbance at 570 nm (Example 8); conditions: 18-24 hours, 37° C.
Method: S. epidermidis strain RP62a (ATCC 35984) was obtained as a glycerol stock from ATCC. 3 ml overnight cultures were grown in tryptic soy broth (TSB, BD Biomedical), shaking at 37° C., and cultures were diluted 1:200 in TSB for use in the biofilm assay.
Each chelator (prepared in Examples 1-6) was added directly to a 96 well microtiter plate in a series of dilutions. 20 μl of each stock solution (200, 400, 800, 1600, 3200, 6400, 13000, or 26000 μM chelator) was added to each well. 200 μl of the 1:200 dilution of RP62a bacterial culture (as previously specified) was added to each well. Controls with bacterial culture media only and bacterial culture media plus vehicle controls only (i.e., final concentrations 10 mM HCl, 10% ethanol, or 10 mM NaOH) were added to wells alone without chelator. The 96 well plates were then incubated 18-24 hours statically at 37° C. Media was aspirated by pipet and wells were washed twice with filtered water. The plates were dried by inversion for 1 hour, and stained with 0.1% crystal violet for 15 minutes. Crystal violet was then aspirated by pipet and washed once with filtered water. The plates were then read on a spectrophotometer at a wavelength of 570 nm. An absorbance greater than 0.1 indicates biofilm formation.

[4] = test system: Staphylococcus aureus Strain COL; assay: Biofilm formation assay in FBS pre-treated 96 well plates, crystal violet (Example 10); conditions: 2% sucrose, 36-40 hours
Method: 3 ml overnight cultures were grown in blood-heart infusion broth (BHI) shaking at 37° C., where cultures were diluted 1:25 for use in the biofilm assay.
2% sucrose (20 μl from a 20% sucrose stock) was added to each well prior to the addition of the bacterial culture to promote biofilm formation. In addition, 96 well microtiter plates were pre-treated with fetal bovine serum (FBS) at 4° C. for at least 24 hours prior to use. The FBS was aspirated prior to addition of chelators and sucrose for the assay. […] 20 μl of each stock solution (200, 400, 800, 1600, 3200, 6400, 13000, or 26000 μM chelator) was added to each well. 200 μl of the 1:25 dilution of COL bacterial culture (as previously specified) was added to each well. Controls with bacterial culture media only and bacterial culture media plus vehicle controls only (i.e, final concentrations 10 mM HCl, 10% ethanol, and 10 mM NaOH) were added to wells alone without chelator. The 96 well plates were then incubated 36-40 hours statically at 37° C. Media was aspirated by pipet and wells were washed twice with filtered water. The plates were dried by inversion for 1 hour, and stained with 0.1% crystal violet for 15 minutes. Crystal violet was then aspirated by pipet and washed once with filtered water. The plates were then read on a spectrophotometer at a wavelength of 570 nm. An absorbance greater than 0.1 indicates biofilm formation.

[5] = test system: Methicillin-Resistant Staphylococcus aureus Strain USA300; assay: Biofilm formation assay in fibronectin pre-treated 96 well plates, crystal violet (Example 11); conditions: USA300, 2% glucose, 36-40 hours
Method: S. aureus strain USA300 was obtained from Daniel Hassett (University of Cincinnati) as a glycerol stock. 3 ml overnight cultures were grown in blood-heart infusion broth (BHI) shaking at 37° C., where cultures were diluted 1:25 for use in the biofilm assay. 2% glucose (20 ul from a 20% glucose stock) was added to each well prior to the addition of bacterial culture to promote biofilm formation. In addition, 96 well microtiter plates were pre-treated with human fibronectin (BD biomedical purchased from Fisher scientific). The fibronectin was aspirated prior to addition of chelators and glucose for the assay. Each chelator (prepared in Examples 1-6) was added directly to a 96 well microtiter plate in a series of dilutions. 20 μl of each stock solution (200, 400, 800, 1600, 3200, 6400, 13000, or 26000 μM chelator) was added to each well. 200 μl of the 1:25 dilution of USA300 bacterial culture dilution (as previously specified) were added to each well. Controls with bacterial culture media only and bacterial culture media plus vehicle controls only (final concentrations 10 mM HCl, 10% ethanol, and 10 mM NaOH) were added to wells alone without chelator. The 96 well plates were then incubated 36-40 hours statically at 37° C. Media was aspirated by pipet and wells were washed twice with filtered water. The plates were dried by inversion for 1 hour, and stained with 0.1% crystal violet for 15 minutes. Crystal violet was then aspirated by pipet and washed once with filtered water. The plates were then read on a spectrophotometer at a wavelength of 570 nm. An absorbance greater than 0.1 indicates biofilm formation.

Molecule: [Cl-].[Cl-].[Sr+2] [SrCl2]
- effect of divalent cation salt on biofilm inhibition by DTPA ([1]; 30 μM DTPA): does not reverse; also recorded: no effect

Molecule: O=C(O)CNCCNCC(=O)O [EDDA, ethylenediamine-N,N′-diacetic acid]
- chelator concentration at which biofilms were diminished but not cleared [2]: 20 µM
- chelator concentration at which biofilms were inhibited (absorbance of 0.1 or less) [2]: 640 µM
- chelator concentration at which biofilms were diminished but not cleared [3]: 80 µM
- chelator concentration at which biofilms were diminished but not cleared [4]: 160 µM

Molecule: c1ccc(CN(CCN(Cc2ccccn2)Cc2ccccn2)Cc2ccccn2)nc1 [TPEN, N,N,N′,N′-tetrakis(2-pyrdiylmethyl)ethylenediamine]
- chelator concentration at which biofilms were diminished but not cleared [5]: 20 µM
- chelator concentration at which biofilms were diminished but not cleared [2]: 20 µM
- chelator concentration at which biofilms were inhibited (absorbance of 0.1 or less) [2]: 40 µM
- chelator concentration at which biofilms were inhibited (absorbance of 0.1 or less) [3]: 20 µM

Molecule: O=C(O)CN(CCN(CC(=O)O)CC(=O)O)CC(=O)O [EDTA, ethylenediaminetetra-acetic acid]
- chelator concentration above which biofilms were inhibited (absorbance of 0.1 or less) [5]: > 2.6 mM
- chelator concentration at which biofilms were diminished but not cleared [5]: 1300 µM
- chelator concentration at which biofilms were diminished but not cleared [2]: 320 µM
- chelator concentration at which biofilms were diminished but not cleared [3]: 40 µM
- chelator concentration at which biofilms were inhibited (absorbance of 0.1 or less) [3]: 320 µM
- chelator concentration above which biofilms were inhibited (absorbance of 0.1 or less) [4]: > 160 µM
- chelator concentration at which biofilms were diminished but not cleared [4]: 20 µM

Molecule: CCN(CC)C(=S)S [DEDTC, diethyldithiocarbamate]
- chelator concentration at which biofilms were diminished but not cleared [2]: 80 µM
- chelator concentration at which biofilms were inhibited (absorbance of 0.1 or less) [2]: 80 µM
- chelator concentration at which biofilms were diminished but not cleared [3]: 20 µM
- chelator concentration at which biofilms were inhibited (absorbance of 0.1 or less) [3]: 1300 µM
- chelator concentration above which biofilms were inhibited (absorbance of 0.1 or less) [4]: > 80 µM
- chelator concentration at which biofilms were diminished but not cleared [4]: 20 µM

Molecule: [Cl-].[Cl-].[Mg+2] [MgCl2]
- effect of divalent cation salt on biofilm inhibition by DTPA ([1]; 30 μM DTPA): does not reverse; also recorded: no effect

Molecule: [Cl][Mn][Cl] [MnCl2]
- concentration that effected partial rescue of biofilm formation ([1]; 30 μM DTPA, FIG. 7D): ≥ 10 µM
- effect of divalent cation salt on biofilm inhibition by DTPA ([1]; 30 μM DTPA): partial rescue

Molecule: c1cnc2c(c1)ccc1cccnc12 [1,10-phenanthroline]
- chelator concentration above which biofilms were inhibited (absorbance of 0.1 or less) [5]: > 1.3 mM
- chelator concentration at which biofilms were diminished but not cleared [5]: 160 µM
- chelator concentration at which biofilms were diminished but not cleared [2]: 320 µM
- chelator concentration at which biofilms were inhibited (absorbance of 0.1 or less) [2]: 1300 µM
- chelator concentration at which biofilms were diminished but not cleared [3]: 80 µM
- chelator concentration at which biofilms were inhibited (absorbance of 0.1 or less) [3]: 640 µM
- chelator concentration above which biofilms were inhibited (absorbance of 0.1 or less) [4]: > 320 µM
- chelator concentration at which biofilms were diminished but not cleared [4]: 80 µM

Molecule: [Ca+2].[Cl-].[Cl-] [CaCl2]
- effect of divalent cation salt on biofilm inhibition by DTPA ([1]; 30 μM DTPA): does not reverse; also recorded: no effect

B1: MBP-Brpt1.5: soluble Brpt1.5 as a maltose-binding protein (MBP) fusion (protein)
chain: VDGDSITSTEEIPFDKKREFDPNLAPGTEKVVQKGEPGTKTITTPTTKNPLTGEKVGEGEPTEKITKQPVDEIVHYGGEQIPQGHKDEFDPNAPVDSKTEVPGKPGVKNPDTGEVVTPPVDDVTKYGPVDGDSITSTEEIPFDKKREFDPNLAPGTEKVVQKGEPGTKTITTPTTKNPLTGEKVGEGKSTEKVTKQPVDEIVEYGPTK
modifications: left off: large carriers
- inhibition of biofilms by soluble protein ([1]; fixed 750 μM ZnCl2, FIG. 8): Dose-dependent biofilm inhibition
- concentration that completely abolished biofilm formation ([1]; fixed 1 mM ZnCl2, FIG. 4B): 10 to 22 µM
- inhibition of biofilms by soluble protein ([1]; in the presence of 0.75-1 mM ZnCl2, FIG. 4A): inhibits RP62A biofilms in a dose-dependent manner; also recorded: inhibited
